What was measured:
Type in all cases: cell-based
[1] = system: Thanatephorus cucumeris (Rhizoctonia solani); test: Thanatephorus cucumeris (Rhizoctonia solani) / liquid culture (foot rot, damping-off); conditions: 20 ppm; liquid culture (potato dextrose broth), growth inhibition photometrically 3-4 days after application; compared to untreated control
Experimental: Example B13: Thanatephorus cucumeris (Rhizoctonia solani)/Liquid Culture (Foot Rot, Damping-Off) Mycelia fragments of a newly grown liquid culture of the fungus are directly mixed into a nutrient broth (potato dextrose broth). After placing a DMSO solution of the test compounds into a microtiter plate (96-well format), the nutrient broth containing the fungal material is added. The test plates are incubated at 24° C. and the inhibition of growth is determined photometrically 3-4 days after application.

[2] = system: Monographella nivalis (Microdochium nivale); test: Monographella nivalis (Microdochium nivale) / liquid culture (foot rot cereals); conditions: liquid culture (potato dextrose broth), growth inhibition photometrically 4-5 days after application, compared to untreated control
Procedure, shortened: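 Cryostored conidia suspended in potato dextrose broth and added to compound dispensed from DMSO solution. Growth at 24 °C; inhibition read photometrically 4–5 days after application.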

[3] = system: Mycosphaerella arachidis (Cercospora arachidicola); test: Mycosphaerella arachidis (Cercospora arachidicola) / liquid culture (early leaf spot); conditions: liquid culture (potato dextrose broth), growth inhibition photometrically 4-5 days after application, compared to untreated control
Procedure, shortened: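 Cryostored conidia mixed into potato dextrose broth and added to compound dispensed in DMSO. Plates held at 24 °C; growth inhibition assessed photometrically 4–5 days after application.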

[4] = system: Mycosphaerella graminicola (Septoria tritici); test: Mycosphaerella graminicola (Septoria tritici) / liquid culture (Septoria blotch); conditions: Zymoseptoria tritici, liquid culture (potato dextrose broth), growth inhibition photometrically 4-5 days after application, compared to untreated control
Procedure, shortened: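 Cryostored conidia in potato dextrose broth added to compound in DMSO, incubated at 24 °C. Growth inhibition read photometrically 4–5 days after application.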

C[C@@H]1c2ccsc2[C@@](C)(c2cnn(C)c2)CN1C(=O)c1nnc(-c2ccc(F)cc2F)s1 (racemic) [Compound P-9, [5-(2,4-difluorophenyl)-1,3,4-thiadiazol-2-yl]-[rac-(4S,7R)-4,7-dimethyl-7-(1-methylpyrazol-4-yl)-4,6-dihydrothieno[3,2-c]pyridin-5-yl]methanone] was tested, and the “control of Thanatephorus cucumeris” value [1] was “at least 80%”, the inhibition of growth at 20 ppm [2] was no less than 80% and the inhibition of growth at 20 ppm [3] was no less than 80%. The inhibition of growth at 20 ppm [4] was no less than 80%.

From patent US20250049035A1, “MICROBIOCIDAL BICYCLE HETEROCYCLIC DERIVATIVES” (SYNGENTA CROP PROTECTION AG, priority 2021, published 2025)
